Data reported in article PMC10647553, “Evaluating the Anti-Melanoma Effects and Toxicity of Cinnamaldehyde Analogues” (Molecules, 2023).
Where two headings read alike, the source gives them in different places.

What was measured:
[1] = test system: melanoma cell lines (A375, A875, SK-MEL-1); test: Initial screening of analogues against melanoma cell lines; assay type: cell-based; conditions: for activity in initial screening: A375, A875, SK-MEL-1, 0–50 µM, 72 h, Figure 2A–C
Protocol: (§1) The HepG-2, HUVEC, L-02, HK-2, A375, A549, H8, U251, HeLa, Cal-27, and PANC-1 cells were maintained in a DMEM medium. The TSSCA, SK-MEL-1, and […] cells were cultured in an RPMI-1640 medium, and the A875 cells were cultured in a MEM medium. All cells were supplemented with 10% fetal bovine serum, 100 units/mL penicillin, and streptomycin at 37 °C in 5% CO2. The Cell Counting Kit-8 (CCK-8, bs-0764P, Bioss, Beijing, China) method was used to assay the cytotoxicity.
(§2) Figure 2 Effect of CA analogues in melanoma cells. (A–D) The different melanoma cell lines were treated with 0–50 µM analogues for 72 h, and then IC50 value was assayed (A dashed blue line: 50% inhibition rate; red box: analogues with high activity).

[2] = test system: multiple types of cancer cells and normal cells; test: Specificity towards different tumor and normal cell lines; assay type: cell-based; conditions: 0–200 µM, 72 h; Figure 3A
Protocol: as §1
(§3) Figure 3 CAD-14 inhibited the proliferation of A375 cells. (A) The different tumor and normal cell lines were treated with 0–200 µM CAD-14 for 72 h, and then IC50 value was assayed. (B) Cells were treated with 0–0.02 µM CAD-14 for 14 days, and Giemsa staining was used to conduct colony formation assays; the histogram depicts the number of colonies. (C,D) Cells were treated with 0–0.8 µM CAD-14 for 24 h; then, the related proteins were tested via Western blotting. Histograms depict the intensity ratio. (E,F) Cells were treated with 0–0.4 µM CAD-14 for 24 h, then the DNA content of the cells was determined with a flow cytometry system. Histograms show the percentage of cells in G0/G1, G2/M, and S phase. Values represent the means ± SD. * p < 0.05, ** p < 0.01 versus “Ctrl” group.

A375 cells [3] = test: A375 xenograft in nude mice; assay type: in vivo, BALB/c-nude mice
Protocol: The 8-week-old female BALB/c-nude mice (18–20 g, specific pathogen-free, SPF) were obtained from the Laboratory Animal Experimental Center of the Academy of Military Medical Sciences (SCXK2012-0004, Beijing, China), and were injected with A375 cells and siENO1-A375 cells (1 × 10^7), respectively. One weeks after the tumor formation, four groups were set up: the “negative control (NC)” group (A375 cells, injected with PBS/day); “siENO1” group (siENO1-A375 cells, injected with PBS/day); “Dacarbazine” group (A375 cells, injected with 10 mg/kg/day dacarbazine); and the “CAD-14” group (A375 cells, injected with 5 mg/kg/day CAD-14). The tumor volume was measured every three days and calculated as length × width^2/2. After two weeks, the mice were sacrificed.
Tumor tissues were isolated from the mice after sacrifice. Then, the tissues were fixed in 4% paraformaldehyde and embedded in paraffin. For immunohistochemistry staining, tissues were stained with Ki67 (GB111141, Servicebio, Wuhan, China). For immunofluorescent staining, tissues were stained with ENO1 (bs-3978R, Bioss, Beijing, China).
Figure 5 CAD-14 inhibited the growth of A375 cells in vivo. (A–C) The A375 cells were transfected with three different recombinant ENO1 retroviral vectors and an NC virus for 72 h; the effect of recombinant retrovirus on ENO1 expression were evaluated via fluorescence photography and Western blotting. Histograms show the intensity ratio. (n = 3). Values represent the means ± SD. ** p < 0.01 versus “NC” group. (D–F) Cells were injected subcutaneously into nude mice. Then, they were treated with Dacarbazine (10 mg/kg/day, as a positive control) or CAD-14 (5 mg/kg/day) for two weeks (the red arrow at day 7 represents the first day of treatment). The tumor volume was calculated (n = 5). (G,H) Immunofluorescent staining of Ki67 and ENO1 to detect proliferation ability and expression of ENO1 in tumor tissues, respectively. Values represent the means ± SD. * p < 0.05 versus “PBS” group.

A375 cells [4] = test: Colony formation assay; assay type: cell-based; conditions: A375, 0–0.02 µM, 14 days, versus Ctrl
Protocol: The A375 cells were plated onto six-well plates (500 cells/well), and after 24 h, CAD-14 (0–0.02 µM) was added to the medium and incubated for an additional 14 days. Cells were fixed in methanol and stained with Giemsa. The colonies were then scored and photographed.
as §3

A375 cells [5] = test: Cell cycle analysis by flow cytometry; assay type: cell-based; conditions: A375, 0–0.4 µM, 24 h, concentration-dependent
Protocol: The A375 cells were incubated with CAD-14 (0–0.4 µM) for 24 h. The cells were collected, washed in PBS, and fixed in ice-cold 75% (v/v) ethanol overnight at –20 °C. The cells were re-suspended, and the DNA content was tested using flow cytometry.
as §3

SK-MEL-1 cells = test: CCK-8 cell viability, SK-MEL-1 melanoma cells; assay type: cell-based; conditions: Homo sapiens, 0–50 µM, 72 h
Protocol: as §1, §2

[6] = test system: Bak, Bcl-2 and survivin in A375 cells; test: Western blotting of apoptosis-related proteins; assay type: cell-based; conditions: A375, 0–0.8 µM, 24 h, dose-dependent
Protocol: (§4) The A375 cells were treated with CAD-14 (0–0.8 µM), alone or with indicated agents, for 24 h. Whole-cell extracts were loaded for SDS-PAGE gels depending on the target protein sizes, and were explored with protein-specific antibodies followed by HRP-conjugated secondary antibodies. Bands corresponding to the antibodies were detected via ECL chemiluminescence.
as §3

A875 cells = test: CCK-8 cell viability, A875 melanoma cells; assay type: cell-based; conditions: 0–50 µM, 72 h
Protocol: as §1, §2

[7] = test system: p38 pathway in A375 cells; test: Western blot of p38/P-p38; assay type: cell-based; conditions: A375, 0–0.8 µM, 24 h
Protocol: as §4
(§5) Figure 4 Validation of the CAD-14 anti-melanoma pathway. (A) Cells were treated with 0–0.8 µM CAD-14 for 24 h, and the ENO1 was assayed via Western blotting. […] (C) Molecular docking analysis of ENO1 and CAD-14. (D) Cells were treated with 0–0.8 µM CAD-14 for 24 h, and the p-38/P-p38 were assayed via Western blot. Histograms show the intensity ratio. Values represent the means ± SD. * p < 0.05, ** p < 0.01 versus “Ctrl” group.

ENO1 = molecular target: T1, ENO1 (Homo sapiens, UniProt P06733); test: Western blot and cellular thermal shift assay (CETSA) of ENO1; assay type: binding
T1 construct: endogenous in cells; host or cells: A375 cells (whole-cell extracts or cell lysates)
T1 sequence (P06733 whole entry): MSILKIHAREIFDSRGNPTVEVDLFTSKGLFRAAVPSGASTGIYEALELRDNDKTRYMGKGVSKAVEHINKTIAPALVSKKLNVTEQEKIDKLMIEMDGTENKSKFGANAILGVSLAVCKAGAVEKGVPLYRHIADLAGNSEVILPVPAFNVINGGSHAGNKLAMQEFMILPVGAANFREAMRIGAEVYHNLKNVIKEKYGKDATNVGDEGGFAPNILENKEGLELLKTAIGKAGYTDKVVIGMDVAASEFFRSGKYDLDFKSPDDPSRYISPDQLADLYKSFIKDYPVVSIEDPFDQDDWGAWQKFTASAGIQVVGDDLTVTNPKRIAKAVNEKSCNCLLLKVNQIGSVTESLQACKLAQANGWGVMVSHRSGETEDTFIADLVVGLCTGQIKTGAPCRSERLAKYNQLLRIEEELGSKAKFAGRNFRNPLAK
Protocol: as §4
In A375 cell lysates, CAD-14 (0.4 μM) was added for 24 h at different temperatures. Western blotting was used to quantify the effects on ENO1 protein levels.
as §5

A375 cells [8] = test: CCK-8 cell viability, A375 melanoma cells; assay type: cell-based; conditions: Homo sapiens, A-375, 0–50 µM, 72 h
Protocol: as §1, §2

zebrafish embryos = test: Developmental/acute toxicity test of zebrafish embryos; assay type: in vivo; conditions: 96 h
Source text: (§6) The AB-wild-type adult zebrafish (three months old) were purchased from the Institute of Aquatic Biology, Chinese Academy of Sciences (Wuhan, China). During breeding, male and female fish were placed in separate spawning boxes at a 1:1 ratio. Then, early in the morning, they were mixed and laid eggs. During the exposure period, 96-well plates containing normal embryos were randomly selected and viewed daily under a light microscope to assess the developmental toxicity.
(§7) (A) The embryo morphology after CAD-14 treatment for 0–96 h. (B) Survival statistics in different time and concentration.

[9] = as above; assay type: in vivo; conditions: AB wild-type, in vivo; zebrafish embryos, 96 h exposure; read-out: median death concentration (IC50)
Source text: as §6, §7

hepatocytes [10] = conditions: rat, in vivo, 1100 mg/kg; cited from earlier work
rats = conditions: intravenous injection; cited from earlier work
hepatocytes [11] = conditions: mouse, in vivo; cited from earlier work

With `O=C/C=C/c1ccccc1Br` [CAD-7, (E)-3-(2-bromophenyl)acrylaldehyde] as the compound, how does the “activity in initial screening” value [1] read?
The value was “strong activity”.

With `O=C/C=C/c1cccc(Cl)c1Cl` [CAD-12, (E)-3-(2,3-dichlorophenyl)acrylaldehyde] as the compound, how does the “activity in initial screening” value [1] read?
The value was “strong activity”.

For `O=C/C=C/c1cccnc1` [CAD-20, (E)-3-(pyridin-3-yl)acrylaldehyde], which “activity in initial screening” value [1] is on record?
The value was “strong activity”.

Which “specificity towards cell types” value [2] does the source give for `O=C/C=C/c1c(F)c(F)c(F)c(F)c1F` [CAD-14, (E)-3-(perfluorophenyl)acrylaldehyde] here?
The value was “inhibited A375 cells more effectively than other cancer cells and was less sensitive to normal cell lines”.

What about the tumor growth (A375 cells [3]; 5 mg/kg/day, two weeks, compared with PBS group) of the same compound?
The tumor growth was “can inhibit the tumor growth”.

What about the “tumor growth effect compared with dacarbazine” value (A375 cells [3]; CAD-14 5 mg/kg/day vs dacarbazine 10 mg/kg/day) of the same compound?
The value was “the effect was better than dacarbazine”.

What about the “ENO1 expression in tumor tissues” value (A375 cells [3]; immunofluorescent staining, Figure 5H) of the same compound?
Its value is “fewer ENO1 accumulated”.

And the number of colonies (A375 cells [4])?
Its number of colonies is “significantly reduced the number of colonies”.

And the cell cycle arrest (A375 cells [5])?
Its cell cycle arrest is “markedly induced S phase arrest”.

What about the IC50 (SK-MEL-1 cells) of the same compound?
Its IC50 is 0.82 µM.

What about the “expression of anti-apoptotic protein Bcl-2” value [6] of the same compound?
The value was “substantially diminished”.

And the “expression of anti-apoptotic protein survivin” value [6]?
The value was “substantially diminished”.

And the “expression of pro-apoptotic protein Bak” value [6]?
Its value is “strongly increased”.

And the IC50 (A875 cells)?
The IC50 was 0.65 µM.

What about the “phosphorylation of p38” value [7] of the same compound?
The value was “suppressed the phosphorylation of p38”.

And the “total p38 protein levels” value [7]?
Its value is “did not affect its total protein levels”.

And the “thermal stability of ENO1 (temperature-dependent CETSA)” value (ENO1; 0.4 μM, A375 cell lysates)?
The value was “decreased the thermal stability of ENO1”.

What about the “stability of ENO1 protein” value (ENO1; Western blot 0–0.8 µM 24 h and CETSA) of the same compound?
The value was “changed the stability of ENO1 protein in a temperature- and dose-responsive manner”.

What about the “activity in initial screening” value [1] of the same compound?
Its value is “strong activity”.

What about the “effect relative to CA” value ([1]; times stronger than CA) of the same compound?
Its value is 80 times.

What about the “effect relative to positive drug DTIC” value ([1]; times stronger than DTIC, Figure 2D) of the same compound?
The value was roughly 15 times.

What about the IC50 (A375 cells [8]) of the same compound?
Its IC50 is 0.58 µM.

And the “Malformation Rates” value (zebrafish embryos; 8 μM)?
The value was 0.00%.

And the Mortalities (zebrafish embryos; 8 μM)?
Its Mortalities is 0.00%.

What about the “Number of Deaths” value (zebrafish embryos; 8 μM) of the same compound?
The value was 0.

What about the “Number of Deformities” value (zebrafish embryos; 8 μM) of the same compound?
The value was 0.

And the “Survival Number” value (zebrafish embryos; 8 μM)?
The value was 20.

And the “Malformation Rates” value (zebrafish embryos; 16 μM)?
Its value is 0.00%.

And the Mortalities (zebrafish embryos; 16 μM)?
Its Mortalities is 0.00%.

What about the “Number of Deaths” value (zebrafish embryos; 16 μM) of the same compound?
The value was 0.

And the “Number of Deformities” value (zebrafish embryos; 16 μM)?
The value was 0.

What about the “Survival Number” value (zebrafish embryos; 16 μM) of the same compound?
Its value is 20.

And the “Malformation Rates” value (zebrafish embryos; 32 μM)?
The value was 0.00%.

What about the Mortalities (zebrafish embryos; 32 μM) of the same compound?
Its Mortalities is 0.00%.

And the “Number of Deaths” value (zebrafish embryos; 32 μM)?
Its value is 0.

What about the “Number of Deformities” value (zebrafish embryos; 32 μM) of the same compound?
The value was 0.

What about the “Survival Number” value (zebrafish embryos; 32 μM) of the same compound?
Its value is 20.

And the “Malformation Rates” value (zebrafish embryos; 64 μM)?
The value was 0.00%.

And the Mortalities (zebrafish embryos; 64 μM)?
The Mortalities was 0.00%.

What about the “Number of Deaths” value (zebrafish embryos; 64 μM) of the same compound?
Its value is 0.

What about the “Number of Deformities” value (zebrafish embryos; 64 μM) of the same compound?
Its value is 0.

What about the “Survival Number” value (zebrafish embryos; 64 μM) of the same compound?
The value was 20.

What about the Mortalities (zebrafish embryos; 128 μM) of the same compound?
The Mortalities was 90.00%.

And the “Number of Deaths” value (zebrafish embryos; 128 μM)?
Its value is 18.

And the “Number of Deformities” value (zebrafish embryos; 128 μM)?
Its value is 0.

And the “Survival Number” value (zebrafish embryos; 128 μM)?
The value was 2.

And the LC50 (median lethal concentration) at 96 h [9]?
Its LC50 (median lethal concentration) at 96 h is 83.7 µM.

For `O=C/C=C/c1cccc2ccccc12` [CAD-2, (E)-3-(naphthalen-1-yl)acrylaldehyde], which “activity in initial screening” value [1] is on record?
The value was “strong activity”.

With `O=C/C=C/c1cccc(Cl)c1` [CAD-10, (E)-3-(3-chlorophenyl)acrylaldehyde] as the compound, how does the “activity in initial screening” value [1] read?
The value was “strong activity”.

Which “micronucleus rate in hepatocytes” value (hepatocytes [10]) does the source give for `O=C/C=C/c1ccccc1` [CA, Cinnamaldehyde] here?
Its value is “increased”.

What about the “Ki67-positive cells in tumor tissues” value (A375 cells [3]; staining of tumor tissues, Figure 5G) of the same compound?
The value was “obvious decrease in Ki67-positive cells”.

And the “lethal dose (LD50)” value (rats)?
The value was 74.8 mg/kg.

What about the “micronucleus rate in hepatocytes” value (hepatocytes [11]) of the same compound?
The value was “increased”.

With “(E)-3-(pyridin-3-yl)acrylaldehyde [CAD-19]” as the compound, how does the “activity in initial screening” value [1] read?
The value was “strong activity”.
